Data from patent US10328093B2, “Anthracycline formulations” (CYTRX CORPORATION, priority 2012, dated 2019).

Experiment: IV Admixture stability in LR at approximately 2.4 mg/mL after reconstitution
Format: physicochemical
Conditions: for pH drop: from zero to two hours
Experimental: To analyze DOXO-EMCH's behavior in solution, a reversed-phase (RP) HPLC method for quantitation of DOXO-EMCH and various impurities and degradation products was utilized. Samples (1.0 μL injection volume) were assayed on an HPLC system fitted with a Phenomenex Gemini C18 column 100×2.0 mm, 3 μm at a flow rate of 0.3 mL/min. The mobile phase used was an acetate/acetonitrile gradient. The degradation product EMCH could not be detected using the above HPLC method, and was therefore determined using a liquid chromatography-mass spectrometry (LC-MS) method.
IV Admixture stability studies were designed to use the reconstitution diluent found suitable in part 1 following the procedure outlined below. Briefly, to prepare an IV Admixture solution containing approximately 2.4 mg/mL DOXO-EMCH, the required volume for reconstitution was withdrawn from the IV infusion solution bag intended for final administration. The required volume for reconstitution of the respective diluent was measured and transferred into a vial of lyophilized DOXO-EMCH. The vial of DOXO-EMCH and diluent was gently swirled to dissolve the vial contents and obtain a homogeneous mixture. The reconstituted solution of drug product was inspected to ensure that the drug was completely dissolved and that no foreign matter was present. This procedure was repeated for the total number of vials required to prepare the calculated dose of DOXO-EMCH in IV infusion solution. The required volume of reconstituted DOXO-EMCH solution was then withdrawn from the drug product vials using a suitably sized syringe, and injected into the IV infution solution bag. The contents of the IV infusion solution bag were thoroughly mixed to obtain a homogeneous mixture. The IV infusion bag was then stored at room temperature and protected from light.
The IV Admixture study was performed by first removing 3 vials of 200 mg lyophilized DOXO-EMCH drug product from storage at −20° C. and allowing the vials to come to room temperature. […] Each of the vials was reconstituted as described above. The required volume of the reconstitution diluent (20 mL) was drawn into an appropriate plastic syringe using a needle and injected through the stopper of each vial. The reconstituted vial was then swirled and visually inspected for complete reconstitution to form a clear, homogeneous solution. The time required to form a clear, homogeneous solution was recorded. The required volume (20.0 mL of a 10 mg/mL constituted solution) was transferred from each reconstituted vial into the 250 mL IV Admixture solution as described above. Briefly, the required volume (20.0 mL of a 10 mg/mL constituted solution) was withdrawn using an appropriate plastic syringe and needle, the required volume of constituted drug product was transferred from each of three vials into the 250 mL IV Admixture using an appropriate plastic syringe and needle, and the contents of the IV Admixture were completely mixed to obtain a homogeneous mixture at a target concentration of approximately 2.4 mg/mL. The IV bag was weighed prior to injection of constituted drug product. […] solution, diluting with chilled HPLC method diluent to achieve a target concentration of 0.24 mg/mL, and injecting into the HPLC. Duplicate injections were made for each time point. The pH of the IV Admixture and sample prepared for HPLC analysis were also measured at each time point. The empty IV bag was weighed at study completion to calculate the actual IV Admixture solution volume in each bag.
The reconstituted solution was evaluated for color, clarity, and absence of insoluble material in the vial after every 30 seconds of mixing. Following addition of the reconstituted drug product solution to the IV bag, the resulting IV Admixture was evaluated for color, clarity, and absence of any insoluble material immediately after mixing and at each analytical time point. The amount (area %) of the degradation product doxorubicin was determined at each time point. […]

[1] = reconstituted in 50:50 ethanol:water, diluted in LR, two hour time point, average of two studies
[2] = reconstituted in LR, diluted in LR to ~2.4 mg/mL, Study #1, ambient temperature, 0 min
[3] = reconstituted in LR, diluted in LR to ~2.4 mg/mL, Study #1, ambient temperature, 30 min
[4] = reconstituted in LR, diluted in LR to ~2.4 mg/mL, Study #1, ambient temperature, 60 min
[5] = reconstituted in LR, diluted in LR to ~2.4 mg/mL, Study #1, ambient temperature, 120 min
[6] = reconstituted in LR, diluted in LR to ~2.4 mg/mL, Study #1, ambient temperature, 150 min
[7] = reconstituted in LR, diluted in LR to ~2.4 mg/mL, Study #1, ambient temperature, 240 min
[8] = reconstituted in LR, diluted in LR to ~2.4 mg/mL, Study #2, ambient temperature, 0 min
[9] = reconstituted in LR, diluted in LR to ~2.4 mg/mL, Study #2, ambient temperature, 30 min
[10] = reconstituted in LR, diluted in LR to ~2.4 mg/mL, Study #2, ambient temperature, 60 min
[11] = reconstituted in LR, diluted in LR to ~2.4 mg/mL, Study #2, ambient temperature, 90 min
[12] = reconstituted in LR, diluted in LR to ~2.4 mg/mL, Study #2, ambient temperature, 120 min
[13] = reconstituted in LR, diluted in LR to ~2.4 mg/mL, Study #2, ambient temperature, 150 min
[14] = reconstituted in SWFI (~10 mg/mL), diluted in LR IV bag to ~2.4 mg/mL, ambient temperature, 30 min
[15] = reconstituted in SWFI (~10 mg/mL), diluted in LR IV bag to ~2.4 mg/mL, ambient temperature, 60 min
[16] = reconstituted in SWFI (~10 mg/mL), diluted in LR IV bag to ~2.4 mg/mL, ambient temperature, 150 min
[17] = reconstituted in SWFI (~10 mg/mL), diluted in LR IV bag to ~2.4 mg/mL, ambient temperature, 240 min
[18] = reconstituted in ethanol:water, diluted in LR to ~2.4 mg/mL, Study #1, ambient temperature, 0 min
[19] = reconstituted in ethanol:water, diluted in LR to ~2.4 mg/mL, Study #1, ambient temperature, 30 min
[20] = reconstituted in ethanol:water, diluted in LR to ~2.4 mg/mL, Study #1, ambient temperature, 60 min
[21] = reconstituted in ethanol:water, diluted in LR to ~2.4 mg/mL, Study #1, ambient temperature, 90 min
[22] = reconstituted in ethanol:water, diluted in LR to ~2.4 mg/mL, Study #1, ambient temperature, 120 min
[23] = reconstituted in ethanol:water, diluted in LR to ~2.4 mg/mL, Study #1, ambient temperature, 150 min
[24] = reconstituted in ethanol:water, diluted in LR to ~2.4 mg/mL, Study #2, ambient temperature, 0 min
[25] = reconstituted in ethanol:water, diluted in LR to ~2.4 mg/mL, Study #2, ambient temperature, 30 min
[26] = reconstituted in ethanol:water, diluted in LR to ~2.4 mg/mL, Study #2, ambient temperature, 60 min
[27] = reconstituted in ethanol:water, diluted in LR to ~2.4 mg/mL, Study #2, ambient temperature, 120 min
[28] = reconstituted in ethanol:water, diluted in LR to ~2.4 mg/mL, Study #2, ambient temperature, 150 min
[29] = reconstituted in ethanol:water, diluted in LR to ~2.4 mg/mL, Study #2, ambient temperature, 240 min

## COc1cccc2c1C(=O)c1c(O)c3c(c(O)c1C2=O)C[C@@](O)(/C(CO)=N/NC(=O)CCCCCN1C(=O)C=CC1=O)C[C@@H]3O[C@H]1C[C@H](N)[C@H](O)[C@H](C)O1.Cl [DOXO-EMCH]
Drug product reconstituted in any of SWFI, LR, 50:50 ethanol/water, based on accumulation of doxorubicin
  stability of IV solutions in LR: relatively stable for two hours or more
Reconstituted in 50:50 ethanol:water, diluted in LR, two studies
  pH drop: 0.3-0.4 units
[1]
  average doxorubicin content: 2.0%
  average pH: 5.9
[2]
  Doxorubicin: 1.10 Area %
  pH: 5.99
[3]
  Doxorubicin: 1.28 Area %
  pH: 5.87
[4]
  Doxorubicin: 1.74 Area %
  pH: 5.85
[5]
  Doxorubicin: 2.24 Area %
  pH: 5.76
[6]
  Doxorubicin: 2.93 Area %
  pH: 5.75
[7]
  Doxorubicin: 3.80 Area %
  pH: 5.67
[8]
  Doxorubicin: 1.03 Area %
  pH: 6.10
[9]
  Doxorubicin: 1.04 Area %
  pH: 5.98
[10]
  Doxorubicin: 1.68 Area %
  pH: 5.94
[11]
  Doxorubicin: 1.67 Area %
  pH: 5.89
[12]
  Doxorubicin: 2.53 Area %
  pH: 5.79
[13]
  Doxorubicin: 2.50 Area %
  pH: 5.77
Reconstituted in LR, diluted in LR, two studies
  pH drop: 0.2-0.3 units
Reconstituted in LR, diluted in LR, two hour time point, average of two studies
  average pH: 5.8
Reconstituted in SWFI (~10 mg/mL), diluted in LR IV bag to ~2.4 mg/mL, ambient temperature, 0 min
  Doxorubicin: 1.23 Area %
[14]
  Doxorubicin: 1.40 Area %
  pH: 5.98
[15]
  Doxorubicin: 1.88 Area %
  pH: 5.84
[16]
  Doxorubicin: 3.23 Area %
  pH: 5.73
[17]
  Doxorubicin: 4.23 Area %
  pH: 5.62
Reconstituted in SWFI, diluted in LR
  pH drop: about 0.4 units
[18]
  Doxorubicin: 1.0 Area %
  pH: 6.22
[19]
  Doxorubicin: 1.1 Area %
  pH: 6.04
[20]
  Doxorubicin: 1.3 Area %
  pH: 5.95
[21]
  Doxorubicin: 1.7 Area %
  pH: 5.89
[22]
  Doxorubicin: 1.9 Area %
  pH: 5.83
[23]
  Doxorubicin: 2.3 Area %
  pH: 5.82
[24]
  Doxorubicin: 1.1 Area %
  pH: 6.19
[25]
  Doxorubicin: 1.3 Area %
  pH: 6.05
[26]
  Doxorubicin: 1.5 Area %
  pH: 5.99
[27]
  Doxorubicin: 2.1 Area %
  pH: 5.89
[28]
  Doxorubicin: 2.3 Area %
  pH: 5.87
[29]
  Doxorubicin: 3.4 Area %
  pH: 5.80
